These results are taken from US5612341A, “Brominated hexahydroxybiphenyl derivatives” (Biotech Research Laboratories, priority 1995, dated 1997).

≈ marks a conversion by molar mass, not a printed value. Structures can show the parent of a compound that is named as a salt. Where two headings read alike, the source gives them in different places.

Type in all cases: cell-based
Test [1] has as its system HIV-1 (IIIB isolate). The test can be described thus: microbe, parasite or virus in culture. The settings on record: for EC50: acutely infected H9 lymphocytes; for Therapeutic Index: 5760 min; for anti-HIV activity: result in words. As for the experimental part: (§1) The H9 T cell line was maintained in continuous culture with complete medium (RPMI and 10% fetal calf serum) at 5% CO2 and 37° C. and was used in experiments only when in log phase of growth. The cells were incubated with HIV-1 (IIIB isolate, TCID50 10^4 IU/mL, at a multiplicity of infection of 0.1-0.01 IU/cell) for 1 hour at 37° C. and 5% CO2. The cells then were washed thoroughly to remove unabsorbed virions and resuspended at 4×10^5 cells/mL in complete medium. Aliquots (1 mL) were placed in wells of 24-well culture plates containing an equal volume of test compound (diluted in the culture medium). After a four day incubation at 37° C., cell density of uninfected cultures was determined by counting cells in a Coulter counter to assess toxicity of the test compound. A p24 antigen ELISA assay was used to determine the level of virus released in the medium of the HIV-infected cultures. The p24 antigen assay uses an HIV-1 anti-p24 specific monoclonal antibody as the capture antibody coated on 96 well plates. Following a sample incubation period, rabbit serum containing antibodies for HIV-1 p24 is used to tag any p24 "captured" onto the microtiter well surface. […] The cut-off for the p24 ELISA assay is 12.5 pg/mL. P24 in the culture medium was quantitated against a standard curve containing known amounts of p24. The effective (EC50) and inhibitory concentrations (for anti-HIV activity and cytotoxicity, respectively) were determined.

In test [2] the test system is H9 T cell line. Nature of the test: Toxicity to uninfected H9 cells (cell count). As for the experimental part: as §1
Test [3] concerns chronically HIV-1 infected promonocytic cell line, U1. The test can be described thus: Virus expression in chronically HIV-1 infected promonocytic U1 cells (p24 ELISA). How it is done: Therefore, compounds 4 and 5 were separately added for 72 hours to the chronically HIV-1 infected T cell line, ACH-2, and to the chronically HIV-1 infected promonocytic cell line, U1.
HIV-1 chronically infected T cell line, ACH-2, ^15 and HIV-1 chronically infected promonocytic cell line, U1 ^16 were continuously maintained in RPMI1640 with 10% fetal calf serum (FCS). For experiments, the cell lines were only used in log-phase of growth. Cells (1×10^6 cells/well) and either various concentrations of 4,5, AZT or media alone were added to 24-well plates in the presence or absence of PMA (10^-8 M). After 72 hours at 37° C. and 5% CO2, an aliquot of the cell-free supernatants was collected and analyzed for p24 antigen by ELISA.
(In general: In an ELISA, binding on a coated surface is turned into a signal by an enzyme label.)

The mark [4] stands for this setting: Human immunodeficiency virus 1, IIIB, Lymphocyte, Table IA, read-out: EC50.
Where [5] appears, read: T-cell, Table IA, concentration that causes a 50% reduction in total cell number, read-out: IC50.
Where [6] appears, read: Human immunodeficiency virus 1, IIIB, Lymphocyte, Table I, read-out: EC50.
Where [7] appears, read: Homo sapiens, H9, Table I, cytotoxicity, uninfected H9 cells, read-out: IC50.
Setting [8] is: Table I, cytotoxicity, uninfected H9 cells.

In general, EC50 refers to the midpoint of the concentration-response curve. Usually IC50 stands for the midpoint of a concentration-inhibition curve. Regarding `COC(=O)c1c(-c2cc(OC)c3c(c2C(=O)OC)OCO3)cc(OC)c2c1OCO2` [Compound 116, 5,5'-Dimethoxy-3,4,3 '4'-bismethylenedioxy-2,2'-dimethoxycarbonyl biphenyl], the EC50 in test [1] (setting [4]) was found to be 70 µg/mL (≈ 167 µM). In addition, in test [1] (Table IA, ratio IC50/EC50), the “Therapeutic Index” value is over 1.4. Also, the IC50 in test [2] (setting [5]) was over 100 µg/mL.
Take `CCOC(=O)c1c(Br)c(OC)c2c(c1-c1c3c(c(OC)c(Br)c1C(=O)O)OCO3)OCO2` [Compound 9, 3,3'-Dibromo-4,4'-dimethoxy-5,6,5'6'-bimethylenedioxy-2-ethoxycarbonyl-2'-carboxy biphenyl]: the EC50 in test [1] (setting [6]) is 60 µg/mL (≈ 104 µM). For the same compound, the “Therapeutic Index” value in test [1] (Table I, IC50/EC50) is reported as over 1.7. The anti-HIV activity result in test [1] is on record as “decrease in the anti-HIV activity”. Further, the IC50 in test [2] (setting [7]) is over 100 µg/mL.
In test [2] (setting [8]), `CCOC(=O)c1c(Br)c(OC)c2c(c1-c1c3c(c(OC)c(Br)c1C(=O)O)OCO3)OCO2` [Compound 10, 3,3'-Dibromo-4,4'-dimethoxy-5,6,5'6'-bimethylenedioxy-2-ethoxycarbonyl-2'-carboxy biphenyl monosodium salt] showed an IC50 of over 100 µg/mL.
As to `COc1c(Br)c(C(=O)O)c(-c2c3c(c(OC)c(Br)c2C(=O)NCCN2CCCC2)OCO3)c2c1OCO2` [Compound 13, 3,3'-Dibromo-4,4'-dimethoxy-5,6,5'6'-bimethylenedioxy-2-carboxy-2'-(β-N-pyrrolidinyl)ethylcarbonyl biphenyl hydrobromide], the EC50 in test [1] (setting [6]) was over 100 µg/mL. Moreover, the “Therapeutic Index” value in test [1] (Table I, IC50/EC50) is 1. Further, the anti-HIV activity result in test [1] is reported as “decrease in the anti-HIV activity”. In test [2] (setting [7]), the IC50 was over 100 µg/mL.
Regarding `COC(=O)c1c(Br)c(OCc2ccccc2)c(OCc2ccccc2)c(OC)c1-c1c(OC)c(OCc2ccccc2)c(OCc2ccccc2)c(Br)c1C(=O)OC` [Compound 17, 2,2'-Dimethoxycarbonyl-3,3'-dibromo-4,4'5,5'-tetrakis(benzyloxy)-6,6'-dimethoxy biphenyl], the EC50 in test [1] (setting [6]) was over 100 µg/mL. Further, in test [1] (Table I, IC50/EC50), the “Therapeutic Index” value came to 1. Also, in test [1], the anti-HIV activity entry is on record as “no anti-HIV activity”. In addition, the IC50 in test [2] (setting [7]) was over 100 µg/mL.
Take `COc1c(Br)c(C(=O)O)c(-c2c3c(c(OC)c(Br)c2C(=O)OCC[N+](C)(C)C)OCO3)c2c1OCO2` [Compound 11, 3,3'-Dibromo-4,4'-dimethoxy-5,6,5'6'-bimethylenedioxy-2-carboxy-2'-(β-N,N,N-trimethylamino)ethoxycarbonyl biphenyl chloride]: the EC50 in test [1] (setting [6]) was over 100 µg/mL. Also, the “Therapeutic Index” value in test [1] (Table I, IC50/EC50) worked out at 1. Also, in test [1], the anti-HIV activity entry was “decrease in the anti-HIV activity”. In test [2] (setting [7]), the IC50 is over 100 µg/mL.
Turning to `COc1c(OCc2ccccc2)c(OCc2ccccc2)cc(CO)c1-c1c(CO)c(Br)c(OCc2ccccc2)c(OCc2ccccc2)c1OC` [Compound 18, 2,2'-Dihydroxymethyl-3-bromo-4,4'5,5'-tetrakis(benzyloxy)-6,6'-dimethoxy biphenyl], the EC50 in test [1] (setting [6]) amounted to 100 µg/mL (≈ 129 µM). Also, the “Therapeutic Index” value in test [1] (Table I, IC50/EC50) was over 1. Further, the anti-HIV activity result in test [1] is “no anti-HIV activity”. Moreover, in test [2] (setting [7]), the IC50 is over 100 µg/mL.
In the case of `COC(=O)c1cc2c(c(OC)c1-c1c(C(=O)OC)cc3c(c1OC)OCO3)OCO2` [Compound 114, 6,6'-dimethoxy-4,5,4'5'-bimethylenedioxy-2,2'-dimethoxycarbonyl biphenyl], the 50% effective concentration (EC50) in test [1] (setting [4]) came out at 65 µg/mL (≈ 155 µM). Further, the “Therapeutic Index” value in test [1] (Table IA, ratio IC50/EC50) is reported as over 1.2. Also, the IC50 in test [2] (setting [5]) was over 100 µg/mL.
As for `COc1c2c(c3c(c1Br)c(=O)oc(=O)c1c(Br)c(OC)c4c(c13)OCO4)OCO2` [Compound 8, 3,3'-Dibromo-4,4'-dimethoxy-5,6,5'6'-bimethylenedioxy biphenyl 2,2'-dicarboxylic anhydride], the IC50 in test [2] (setting [7]) was over 100 µg/mL.
As to `Cc1cn([C@H]2C[C@H](N=[N+]=[N-])[C@@H](CO)O2)c(=O)[nH]c1=O` [AZT, azidothymidine, reference compound], the p24 was 18 pg/mL in test [3] (+Media, 0.1 μg/mL); 12 pg/mL in test [3] (+Media, 1 μg/mL); 13 pg/mL in test [3] (+Media, 10 μg/mL); 22 pg/mL in test [3] (+Media, 100 μg/mL); 8,070 pg/mL in test [3] (+PMA, 0.1 μg/mL); 8,218 pg/mL in test [3] (+PMA, 1 μg/mL). Moreover, the p24 in test [3] (+PMA, 10 μg/mL) is on record as 9,299 pg/mL; in test [3] (+PMA, 100 μg/mL), 9,338 pg/mL.
Consider `COc1c(Br)c(C(=O)O)c(-c2c3c(c(OC)c(Br)c2C(=O)O)OCO3)c2c1OCO2` [Compound 6, 3,3'-Dibromo-4,4'-dimethoxy-5,6,5'6'-bimethylenedioxy-2,2'-dicarboxy biphenyl], for which, in test [1] (Table I, IC50/EC50), the “Therapeutic Index” value is 1. In test [1] (Table I), this compound registered an EC50 of over 100 µg/mL. Moreover, in test [1], the anti-HIV activity entry is “decrease in the anti-HIV activity”. In addition, the 50% inhibitory concentration (IC50) in test [2] (setting [8]) was over 100 µg/mL.
In the case of `COc1c(Br)c(C(=O)O)c(-c2c3c(c(OC)c(Br)c2C(=O)O)OCO3)c2c1OCO2` [Compound 14, 3,3'-Dibromo-4,4'-dimethoxy-5,6,5',6'-bimethylenedioxy-2,2'-dicarboxy biphenyl di-1-(2-hydroxyethyl)pyrrolidinium salts], in test [1] (Table I), the EC50 amounted to 17 µg/mL.
As for `COc1c(Br)c(C(=O)O)c(-c2c3c(c(OC)c(Br)c2C(=O)NCCN2CCNCC2)OCO3)c2c1OCO2` [Compound 12, 3,3'-Dibromo-4,4'-dimethoxy-5,6,5'6'-bimethylenedioxy-2-carboxy-2'-(β-N-piperazine)ethylcarbonyl biphenyl], the EC50 in test [1] (setting [6]) was 30 µg/mL (≈ 45.5 µM). Also, in test [1] (Table I, IC50/EC50), the “Therapeutic Index” value is on record as over 3.3. Besides, the anti-HIV activity result in test [1] is reported as “decrease in the anti-HIV activity”. In test [2] (setting [7]), the IC50 is over 100 µg/mL.
On to `COC(=O)c1c(Br)c2c(c(OC)c1-c1c(OC)c3c(c(Br)c1C(=O)OC)OCO3)OCO2` [Compound 118, 3,3'-Dibromo-6,6'-dimethoxy-4,5,4,5'-bimethylenedioxy-2,2'-dimethoxycarbonyl biphenyl], for which the EC50 in test [1] (setting [4]) was determined as 90 µg/mL (≈ 156 µM). Besides, in test [1] (Table IA, ratio IC50/EC50), the “Therapeutic Index” value is listed as over 1.1. The half-maximal inhibitory concentration (IC50) in test [2] (setting [5]) is over 100 µg/mL.
On to `COC(=O)c1cc(OCc2ccccc2)c(OCc2ccccc2)c(OC)c1-c1c(OC)c(OCc2ccccc2)c(OCc2ccccc2)c(Br)c1C(=O)OC` [Compound 16, 2,2'-Dimethoxycarbonyl-3-bromo-4,4',5,5'-tetrakis(benxyloxy)-6,6'-dimethoxybiphenyl], for which, in test [1] (setting [6]), the EC50 was over 100 µg/mL. The “Therapeutic Index” value in test [1] (Table I, IC50/EC50) is given as 1. Besides, the anti-HIV activity result in test [1] is reported as “no anti-HIV activity”. In test [2] (setting [7]), the IC50 is over 100 µg/mL.
`COC(=O)c1c2c(c(OC)c(Br)c1-c1c(Br)c(OC)c3c(c1C(=O)OC)OCO3)OCO2` [Compound 110, 6,6'-Dibromo-5,5'-dimethoxy-3,4,3'4'-bimethylenedioxy-2,2'-dimethoxycarbonyl biphenyl]: in test [1] (Table IA), the EC50 result is “no inhibition”. In test [2] (setting [5]), the IC50 came out at 45 µg/mL (≈ 78.1 µM).
Consider `COc1c(OCc2ccccc2)c(OCc2ccccc2)c(Br)c(CO)c1-c1c(CO)c(Br)c(OCc2ccccc2)c(OCc2ccccc2)c1OC` [Compound 19, 2,2'-Dihydroxymethyl-3,3'-dibromo-4,4'5,5'-tetrakis(benzyloxy)-6,6'-dimethoxy diphenyl], for which the EC50 in test [1] (setting [6]) was over 100 µg/mL. In addition, the “Therapeutic Index” value in test [1] (Table I, IC50/EC50) is 1. For the same compound, the anti-HIV activity entry in test [1] is recorded as “no anti-HIV activity”. Also, the IC50 in test [2] (setting [7]) was over 100 µg/mL.
Consider `COC(=O)c1cc2c(c(OC)c1-c1c(C(=O)OC)cc(OC)c3c1OCO3)OCO2` [Compound 115, 4,6'-dimethoxy-5,6,4'5'-binethylenedioxy,2,2'-dimethoxycarbonyl biphenyl], for which the half-maximal effective concentration (EC50) in test [1] (setting [4]) was determined as 7.5 µg/mL (≈ 17.9 µM). In addition, the “Therapeutic Index” value in test [1] (Table IA, ratio IC50/EC50) was over 13. Moreover, in test [2] (setting [5]), the IC50 was over 100 µg/mL.
Turning to `COC(=O)c1c(Br)c2c(c(OC)c1-c1c3c(c(OC)c(Br)c1C(=O)OC)OCO3)OCO2` [Compound 119, 3,3'-Dibromo-4,6'-dimethoxy-5,6,4'5'-bimethylenedioxy-2,2'-dimethoxycarbonyl biphenyl], the EC50 in test [1] (setting [4]) is 2.1 µg/mL (≈ 3.64 µM). For the same compound, in test [1] (Table IA, ratio IC50/EC50), the “Therapeutic Index” value is recorded as over 48. Also, the IC50 in test [2] (setting [5]) is over 100 µg/mL.
Turning to `COC(=O)c1cc(-c2cc(C(=O)OC)c3c(c2OC)OCO3)c(OC)c2c1OCO2` [Compound 117, 2,2'-Dimethoxy-3,4,3'4'-bismethylenedioxy-5,5'-dimethoxycarbonyl biphenyl], in test [1] (Table IA), the EC50 result was “no inhibition”. Moreover, the IC50 in test [2] (setting [5]) came out at 1.8 µg/mL (≈ 4.3 µM).
